Laboratory results reported in US20150038545A1, “HYDROXYPHENYL PYRROLE COMPOUNDS CONTAINING AN HYDROXAMIC ACID AS HDAC INHIBITORS AND MEDICINAL APPLICATIONS THEREOF” (UNIVERSIDAD DEL PAÍS VASCO, priority 2011, published 2015).

What was measured:
HT-1080 = experiment: Cancer cell growth inhibition (CellTiter-Glo), HT-1080; type: cell-based; conditions: Homo sapiens; Fibrosarcoma, HT-1080, 72 h treatment
Protocol: (§1) Cell culture-based assays were used to evaluate the ability of compounds of the invention to inhibit cancer cell growth.
(§2) Cells were obtained from the American Type Culture Collection (ATCC). Cells were cultured at 37° C. with 5% CO2 in the appropriate growth medium (see table below), and harvested respectively during the logarithmic growth period and counted with hemocytometer. The cell viability was examined by trypan blue exclusion. Cell concentrations were adjusted to 5.56×10^4 cells/ml with respective medium.
(§3) Stock solutions of test compounds and positive drugs Doxorubicin (Zhejiang, Haizheng, China), Cisplatin (Nanjing Zhiyao, China) and Mitomycin (Zhejiang, Haizheng, China) were prepared in dimethyl sulphoxide (DMSO) or PBS at 20 mM.
(§4) In order to determine the IC50 for each compound, experiments were carried out in 96-well plates and the cell lines seeded at a density of 5,000 cells/well. […] All treatments were performed in triplicate. 10 μl of drug solution was added to each well and incubated for 72 hours. At the end of the incubation, 100 μl of the CellTiter-Glo Reagent were added to each well and the contents were mixed for 2 munites on an orbital shaker to induce cell lysis. The plate was incubated at room temperature for 10 minutes to stabilize luminiscent signal, and luminiscent was recorded. […] In order to calculate IC50 values, dose-responsive curves were fitted using nonlinear regression model with a sigmoidal dose response.

DU145 = experiment: Cancer cell growth inhibition (CellTiter-Glo), DU145; type: cell-based, Human; conditions: Prostate Cancer, DU145, 72 h treatment
Protocol: as §1, §2, §3, §4

HT-29 = experiment: Cancer cell growth inhibition (CellTiter-Glo), HT-29; type: cell-based, Human; conditions: Colorectal Cancer, HT-29, 72 h treatment
Protocol: as §1, §2, §3, §4

NCI-H460 = experiment: Cancer cell growth inhibition (CellTiter-Glo), NCI-H460; type: cell-based, Human; conditions: Lung Cancer, NCI-H460, 72 h treatment
Protocol: as §1, §2, §3, §4

SK-BR-3 = experiment: Cancer cell growth inhibition (CellTiter-Glo), SK-BR-3; type: cell-based, Human; conditions: Breast Cancer, SK-BR-3, 72 h treatment
Protocol: as §1, §2, §3, §4

K562 = experiment: Cancer cell growth inhibition (CellTiter-Glo), K562; type: cell-based, Human; conditions: CML, K562, 72 h treatment
Protocol: as §1, §2, §3, §4

A549 = experiment: Cancer cell growth inhibition (CellTiter-Glo), A549; type: cell-based, Human; conditions: Lung Cancer, A549, 72 h treatment
Protocol: as §1, §2, §3, §4

LNCaP = experiment: Cancer cell growth inhibition (CellTiter-Glo), LNCaP; type: cell-based, Human; conditions: Prostate Cancer, 72 h treatment
Protocol: as §1, §2, §3, §4

MCG803 = experiment: Cancer cell growth inhibition (CellTiter-Glo), MCG803; type: cell-based, Human; conditions: Gastric Cancer, MCG803, 72 h treatment
Protocol: as §1, §2, §3, §4

NCI-H1703 = experiment: Cancer cell growth inhibition (CellTiter-Glo), NCI-H1703; type: cell-based, Human; conditions: Lung Cancer, NCI-H1703, 72 h treatment
Protocol: as §1, §2, §3, §4

KB = experiment: Cancer cell growth inhibition (CellTiter-Glo), KB; type: cell-based, Human; conditions: Oral Cancer, 72 h treatment
Protocol: as §1, §2, §3, §4

SW480 = experiment: Cancer cell growth inhibition (CellTiter-Glo), SW480; type: cell-based, Human; conditions: Colorectal Cancer, SW480, 72 h treatment
Protocol: as §1, §2, §3, §4

786-O = experiment: Cancer cell growth inhibition (CellTiter-Glo), 786-O; type: cell-based, Human; conditions: Kidney Cancer, 72 h treatment
Protocol: as §1, §2, §3, §4

CNE2 = experiment: Cancer cell growth inhibition (CellTiter-Glo), CNE2; type: cell-based, Human; conditions: Nasopharyngeal, CNE2, 72 h treatment
Protocol: as §1, §2, §3, §4

Hep3B = experiment: Cancer cell growth inhibition (CellTiter-Glo), Hep3B; type: cell-based, Human; conditions: Liver Cancer, 72 h treatment
Protocol: as §1, §2, §3, §4

PC-3 = experiment: Cancer cell growth inhibition (CellTiter-Glo), PC-3; type: cell-based, Human; conditions: Prostate Cancer, PC-3, 72 h treatment
Protocol: as §1, §2, §3, §4

DLD-1 = experiment: Cancer cell growth inhibition (CellTiter-Glo), DLD-1; type: cell-based, Human; conditions: Colorectal Cancer, DLD-1, 72 h treatment
Protocol: as §1, §2, §3, §4

Bx-PC-3 = experiment: Cancer cell growth inhibition (CellTiter-Glo), Bx-PC-3; type: cell-based, Human; conditions: Pancreatic Cancer, Bx-PC-3, 72 h treatment
Protocol: as §1, §2, §3, §4

Calu-6 = experiment: Cancer cell growth inhibition (CellTiter-Glo), Calu-6; type: cell-based, Human; conditions: Lung Cancer, Calu-6, 72 h treatment
Protocol: as §1, §2, §3, §4

A375 = experiment: Cancer cell growth inhibition (CellTiter-Glo), A375; type: cell-based, Human; conditions: Melanoma, A375, 72 h treatment
Protocol: as §1, §2, §3, §4

NCI-N87 = experiment: Cancer cell growth inhibition (CellTiter-Glo), NCI-N87; type: cell-based, Human; conditions: Gastric Cancer, NCI-N87, 72 h treatment
Protocol: as §1, §2, §3, §4

LoVo = experiment: Cancer cell growth inhibition (CellTiter-Glo), LoVo; type: cell-based, Human; conditions: Colorectal Cancer, 72 h treatment
Protocol: as §1, §2, §3, §4

SK-MEL-5 = experiment: Cancer cell growth inhibition (CellTiter-Glo), SK-MEL-5; type: cell-based, Human; conditions: Melanoma, SK-MEL-5, 72 h treatment
Protocol: as §1, §2, §3, §4

MCF-7 = experiment: Cancer cell growth inhibition (CellTiter-Glo), MCF-7; type: cell-based, Human; conditions: Breast Cancer, MCF-7, 72 h treatment
Protocol: as §1, §2, §3, §4

BGC-823 = experiment: Cancer cell growth inhibition (CellTiter-Glo), BGC-823; type: cell-based, Human; conditions: Gastric Cancer, BGC-823, 72 h treatment
Protocol: as §1, §2, §3, §4

PANC-1 = experiment: Cancer cell growth inhibition (CellTiter-Glo), PANC-1; type: cell-based, Human; conditions: Pancreatic Cancer, PANC-1, 72 h treatment
Protocol: as §1, §2, §3, §4

U-87MG = experiment: Cancer cell growth inhibition (CellTiter-Glo), U-87MG; type: cell-based, Human; conditions: Glioblastoma, 72 h treatment
Protocol: as §1, §2, §3, §4

OVCAR3 = experiment: Cancer cell growth inhibition (CellTiter-Glo), OVCAR3; type: cell-based, Human; conditions: Ovarian Cancer, OVCAR3, 72 h treatment
Protocol: as §1, §2, §3, §4

SK-OV-3 = experiment: Cancer cell growth inhibition (CellTiter-Glo), SK-OV-3; type: cell-based, Human; conditions: Ovarian Cancer, SK-OV-3, 72 h treatment
Protocol: as §1, §2, §3, §4

SK-MES-1 = experiment: Cancer cell growth inhibition (CellTiter-Glo), SK-MES-1; type: cell-based, Human; conditions: Lung Cancer, SK-MES-1, 72 h treatment
Protocol: as §1, §2, §3, §4

RPMI-8226 = experiment: Cancer cell growth inhibition (CellTiter-Glo), RPMI-8226; type: cell-based, Human; conditions: Orthotopic Multiple Myeloma, RPMI-8226, 72 h treatment
Protocol: as §1, §2, §3, §4

SK-HEP-1 = experiment: Cancer cell growth inhibition (CellTiter-Glo), SK-HEP-1; type: cell-based; conditions: Homo sapiens, SK-HEP1; Liver Cancer, SK-HEP-1, 72 h treatment
Protocol: as §1, §2, §3, §4

BT474 = experiment: Cancer cell growth inhibition (CellTiter-Glo), BT474; type: cell-based; conditions: Homo sapiens, BT-474; Breast Cancer, BT474, 72 h treatment
Protocol: as §1, §2, §3, §4

HepG2 = experiment: Cancer cell growth inhibition (CellTiter-Glo), HepG2; type: cell-based; conditions: Homo sapiens; Liver Cancer, HepG2, 72 h treatment
Protocol: as §1, §2, §3, §4

SW620 = experiment: Cancer cell growth inhibition (CellTiter-Glo), SW620; type: cell-based; conditions: Homo sapiens, SW-620; Colorectal Cancer, SW620, 72 h treatment
Protocol: as §1, §2, §3, §4

MIAPaCa-2 = experiment: Cancer cell growth inhibition (CellTiter-Glo), MIAPaCa-2; type: cell-based; conditions: Homo sapiens, MIA PaCa-2; Pancreatic Cancer, MIAPaCa-2, 72 h treatment
Protocol: as §1, §2, §3, §4

HCT-116 = experiment: Cancer cell growth inhibition (CellTiter-Glo), HCT-116; type: cell-based; conditions: Homo sapiens; Colorectal Cancer, HCT-116, 72 h treatment
Protocol: as §1, §2, §3, §4

Colo205 = experiment: Cancer cell growth inhibition (CellTiter-Glo), Colo205; type: cell-based; conditions: Homo sapiens, COLO 205; Colorectal Cancer, Colo205, 72 h treatment
Protocol: as §1, §2, §3, §4

MDA-MB-231 = experiment: Cancer cell growth inhibition (CellTiter-Glo), MDA-MB-231; type: cell-based; conditions: Homo sapiens; Breast Cancer, MDA-MB-231, 72 h treatment
Protocol: as §1, §2, §3, §4

143b = experiment: Cancer cell growth inhibition (CellTiter-Glo), 143b; type: cell-based; conditions: Homo sapiens, Osteosarcoma, 72 h treatment
Protocol: as §1, §2, §3, §4

COc1cccc2c1C(=O)c1c(O)c3c(c(O)c1C2=O)C[C@@](O)(C(=O)CO)C[C@@H]3O[C@H]1C[C@H](N)[C@H](O)[C@H](C)O1 [Doxorubicin, reference compound]
IC50 (HT-1080): 0.27 µM

N.N.[Cl][Pt][Cl] [Cisplatin, reference compound]
IC50 (DU145): 1.02 µM | IC50 (HT-29): 12.2 µM | IC50 (NCI-H460): 1.6 µM | IC50 (SK-BR-3): 3.18 µM | IC50 (K562): 14.8 µM | IC50 (A549): 8.22 µM | IC50 (LNCaP): 6.51 µM | IC50 (MCG803): 5.08 µM | IC50 (NCI-H1703): 7.56 µM | IC50 (KB): 10.4 µM | IC50 (SW480): 46.6 µM | IC50 (786-O): 3.23 µM | IC50 (CNE2): 6.58 µM | IC50 (Hep3B): 3.96 µM | IC50 (PC-3): 59.5 µM | IC50 (DLD-1): 11.3 µM | IC50 (Bx-PC-3): 4.73 µM | IC50 (Calu-6): 2.45 µM | IC50 (A375): 3.16 µM | IC50 (NCI-N87): 4.21 µM | IC50 (LoVo): 10.4 µM | IC50 (SK-MEL-5): 5.81 µM | IC50 (MCF-7): 22.2 µM | IC50 (BGC-823): 1.15 µM | IC50 (PANC-1): 22 µM | IC50 (U-87MG): 4.76 µM | IC50 (OVCAR3): 4.47 µM | IC50 (SK-OV-3): 9.88 µM | IC50 (SK-MES-1): 9.49 µM | IC50 (RPMI-8226): 4.57 µM

CO[C@@]12[C@H](COC(N)=O)C3=C(C(=O)C(C)=C(N)C3=O)N1C[C@@H]1N[C@@H]12 [Mitomycin, reference compound]
IC50 (SK-HEP-1): 8.12 µM | IC50 (BT474): 30.3 µM | IC50 (HepG2): 0.91 µM | IC50 (SW620): 1.22 µM | IC50 (MIAPaCa-2): 0.63 µM | IC50 (HCT-116): 0.82 µM | IC50 (Colo205): 2.67 µM | IC50 (MDA-MB-231): 19.8 µM | IC50 (143b): 0.64 µM
